By MIC is commonly meant the lowest concentration that inhibits growth of the organism.

The record followed here is patent publication US11999759B2, “Boronic acid derivatives and therapeutic uses thereof” (Qpex Biopharma, Inc., priority 2016, dated 2024).

The subject of one assay is AB1054 (OXA-23). The assay is described as follows: Meropenem potentiation (MPC@8), strain AB1054. It is filed as cell-based. The following applies: Acinetobacter baumannii, read-out: Meropenem MIC.
In the next assay the test system is AB1053 (OXA-72). The assay is described as follows: Meropenem potentiation (MPC@8), strain AB1053. Type of assay: cell-based. To be noted: Acinetobacter baumannii; strain AB1053 (OXA-72), meropenem alone.
Assay [1] relates to KP1005 (CTX-M-14). Put plainly: Tigemonam potentiation (MPC@4), strain KP1005. To be noted: strain KP1005 (CTX-M-14), tigemonam alone.
The test system of assay [2] is ec302 (TEM-10). The assay is described as follows: Tigemonam potentiation (MPC@4), strain ec302. To be noted: strain ec302 (TEM-10), tigemonam alone. Type of assay: cell-based.
In assay [3] the test system is ec308 (SHV-5). The assay is described as follows: Tigemonam potentiation (MPC@4), strain ec308. It is filed as cell-based. The following applies: strain ec308 (SHV-5), tigemonam alone.
The test system of assay [4] is EC1010 (CMY-6). Put plainly: Tigemonam potentiation (MPC@4), strain EC1010. Type of assay: cell-based. To be noted: strain EC1010 (CMY-6), tigemonam alone.
Assay [5] has as its system ECL1002. Put plainly: Tigemonam potentiation (MPC@4), strain ECL1002. The following applies: strain ECL1002, tigemonam alone. Type of assay: cell-based.
Assay [6] deals with KP1010 (SHV-12). Put plainly: Tigemonam potentiation (MPC@4), strain KP1010. The following applies: strain KP1010 (SHV-12), tigemonam alone.
The test system of assay [7] is KP1009 (CTX-M-15). The assay is described as follows: Tigemonam potentiation (MPC@4), strain KP1009. To be noted: strain KP1009 (CTX-M-15), tigemonam alone.
The test system of assay [8] is EC1010 (CMY-6). Put plainly: Aztreonam potentiation (MPC@4), strain EC1010. To be noted: read-out: Aztreonam MIC.
Assay [9] concerns ec302 (TEM-10). Put plainly: Aztreonam potentiation (MPC@4), strain ec302. The following applies: read-out: Aztreonam MIC.
Assay [10] relates to KP1010 (SHV-12). Put plainly: Aztreonam potentiation (MPC@4), strain KP1010. To be noted: read-out: Aztreonam MIC.
Assay [11] concerns ec308 (SHV-5). Put plainly: Aztreonam potentiation (MPC@4), strain ec308. To be noted: read-out: Aztreonam MIC.
Assay [12] has as its system KP1005 (CTX-M-14). The assay is described as follows: Aztreonam potentiation (MPC@4), strain KP1005. To be noted: read-out: Aztreonam MIC.
Assay [13] concerns KP1004 (KPC-2). Put plainly: Aztreonam potentiation (MPC@4), strain KP1004. To be noted: read-out: Aztreonam MIC.
Assay [14] deals with ECL1002. The assay is described as follows: Aztreonam potentiation (MPC@4), strain ECL1002. The following applies: read-out: Aztreonam MIC.
The test system of assay [15] is KP1009 (CTX-M-15). The assay is described as follows: Aztreonam potentiation (MPC@4), strain KP1009. To be noted: read-out: Aztreonam MIC.
The next assay relates to KP1054 (VIM-1). The assay is described as follows: Biapenem potentiation (MPC@1), strain KP1054. It is filed as cell-based. The following applies: strain KP1054 (VIM-1), biapenem alone.
Assay [16] deals with KP1004 (KPC-2). The assay is described as follows: Biapenem potentiation (MPC@1), strain KP1004. Type of assay: cell-based. The following applies: strain KP1004 (KPC-2), biapenem alone. The text has this:
(§1) Biapenem was present in the test medium at 1 Dg/mL. […] Table 4 summarizes the BLI potency of biapenem potentiation (MPC@1) for two strains overexpressing class A (KPC) and class D (OXA-48) carbapenemases. Biapenem MIC for each strain is also shown.

The next assay deals with KP1086 (OXA-48). Put plainly: Biapenem potentiation (MPC@1), strain KP1086. Type of assay: cell-based. The following applies: strain KP1086 (OXA-48), biapenem alone.
From the text: as §1

Assay [17] concerns PAM1032/KPC-2 (overexpressed MexAB-OprM). Put plainly: Biapenem potentiation (MPC64) in PAM1032/KPC-2. Type of assay: cell-based, Pseudomonas aeruginosa. The following applies: Pseudomonas aeruginosa; PAM1032/KPC-2, biapenem alone. In outline:
(§2)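 KPC-2 plasmid-expressing P. aeruginosa strains were used to measure BLI potentiation of biapenem as MPC64. The PAM1032/KPC-2 to PAM1154/KPC-2 MPC64 ratio gave the Efflux Index.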

Assay [18] deals with PAM1154/KPC-2 (lacked MexAB-OprM). The assay is described as follows: Biapenem potentiation (MPC64) in PAM1154/KPC-2. To be noted: Pseudomonas aeruginosa; PAM1154/KPC-2, biapenem alone. It is filed as cell-based, Pseudomonas aeruginosa. In outline: as §2
For the next assay, the system named is KP1081 (NDM-1). Put plainly: Biapenem potentiation (MPC@1), strain KP1081. It is filed as cell-based. The following applies: strain KP1081 (NDM-1), biapenem alone.

Turning to `C[C@@H](O)[C@H]1C(=O)N2C(C(=O)O)=C(S[C@@H]3CN[C@H](C(=O)N(C)C)C3)[C@H](C)[C@H]12` [Meropenem], the MIC was 32 µg/mL with AB1054 (OXA-23) and over 64 µg/mL in the assay with AB1053 (OXA-72).
In the case of `CC1(C)[C@H](NC(=O)/C(=N\OCC(=O)O)c2csc(N)n2)C(=O)N1OS(=O)(=O)O` [Tigemonam], the “Tigemonam MIC” value in the assay with KP1005 (CTX-M-14) [1] was over 64 µg/mL; in the assay with ec302 (TEM-10) [2], over 64 µg/mL; with ec308 (SHV-5) [3], over 64 µg/mL; in the assay with EC1010 (CMY-6) [4] it was 16 µg/mL; in the assay with ECL1002 [5] it was 32 µg/mL; in the assay on KP1010 (SHV-12) [6], over 64 µg/mL. Further, in the assay with KP1009 (CTX-M-15) [7], the “Tigemonam MIC” value is over 64 µg/mL.
Take `C[C@H]1[C@H](NC(=O)/C(=N\OC(C)(C)C(=O)O)c2csc(N)n2)C(=O)N1S(=O)(=O)O` [Aztreonam]: the MIC in the assay on EC1010 (CMY-6) [8] was over 128 µg/mL; in the assay with ec302 (TEM-10) [9] it was 128 µg/mL; with KP1010 (SHV-12) [10] it was 64 µg/mL; in the assay with ec308 (SHV-5) [11] it was over 128 µg/mL; in the assay with KP1005 (CTX-M-14) [12], over 128 µg/mL; with KP1004 (KPC-2) [13] it was over 128 µg/mL. Further, the results for the MIC in the assay with ECL1002 [14] and in the assay on KP1009 (CTX-M-15) [15] were 64 µg/mL and over 128 µg/mL, respectively.
As for `C[C@@H](O)[C@H]1C(=O)N2C(C(=O)[O-])=C(SC3Cn4cnc[n+]4C3)[C@H](C)[C@H]12` (some centres unmarked) [Biapenem], the MIC worked out at 16 µg/mL in the assay with KP1054 (VIM-1); 32 µg/mL in the assay on KP1004 (KPC-2) [16]; 16 µg/mL in the assay with KP1086 (OXA-48); 32 µg/mL in assay [17]; 32 µg/mL in [18]; 16 µg/mL with KP1081 (NDM-1).
